Measured values from PMC8079033, “Design, synthesis, anticancer evaluation, and molecular modelling studies of novel tolmetin derivatives as potential VEGFR-2 inhibitors and apoptosis inducers” (Journal of Enzyme Inhibition and Medicinal Chemistry, 2021).

Legend:
Experiment in all cases: NCI 60-cell line one-dose antiproliferative screen (SRB)
Format in all cases: cell-based
[1] = tested on: U251; settings: Homo sapiens, U-251, read-out: growth inhibition % (GI%)
In short: (§1)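 Seed cells; incubate 24 h; fix time-zero plates with TCA; add compound to 10 µM; incubate 48 h at 37 °C; fix in cold TCA; stain with 0.4% SRB; solubilise in 10 mM Tris base; read 515 nm.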

[2] = tested on: MCF7; settings: Homo sapiens, read-out: growth inhibition % (GI%)
In short: as §1

[3] = tested on: M14; settings: Homo sapiens, read-out: growth inhibition % (GI%)
In short: as §1

[4] = tested on: HL-60 (TB); settings: Homo sapiens, read-out: growth inhibition % (GI%)
In short: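 Compounds tested at a single 10 µM dose for 48 h at 37 °C after 24 h pre-incubation; cells TCA-fixed and stained with sulforhodamine B, absorbance at 515 nm. Percent growth calculated relative to no-compound control and time-zero cell count, reported as growth inhibition percentage.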

[5] = tested on: PC-3; settings: Homo sapiens, read-out: growth inhibition % (GI%)
In short: as §1

[6] = tested on: SNB-75; settings: Homo sapiens, read-out: growth inhibition % (GI%)
In short: as §1

[7] = tested on: CCRF-CEM; settings: Homo sapiens, read-out: growth inhibition % (GI%)
In short: as §1

[8] = tested on: LOX IMVI; settings: Homo sapiens, read-out: growth inhibition % (GI%)
In short: as §1

[9] = tested on: HOP-62; settings: Homo sapiens, read-out: growth inhibition % (GI%)
In short: as §1

[10] = tested on: IGROV1; settings: Homo sapiens, IGROV-1, read-out: growth inhibition % (GI%)
In short: as §1

[11] = tested on: OVCAR-5; settings: Homo sapiens, read-out: growth inhibition % (GI%)
In short: as §1

[12] = tested on: SW-620; settings: Homo sapiens, read-out: growth inhibition % (GI%)
In short: as §1

[13] = tested on: SNB-19; settings: Homo sapiens, read-out: growth inhibition % (GI%)
In short: as §1

[14] = tested on: MDA-MB-231/ATCC; settings: Homo sapiens, read-out: growth inhibition % (GI%)
In short: as §1

[15] = tested on: SK-MEL-5; settings: Homo sapiens, read-out: growth inhibition % (GI%)
In short: as §1

[16] = tested on: HCT-15; settings: Homo sapiens, read-out: growth inhibition % (GI%)
In short: as §1

[17] = tested on: NCI-H226; settings: Homo sapiens, read-out: growth inhibition % (GI%)
In short: as §1

[18] = tested on: RPMI-8226; settings: Homo sapiens, read-out: growth inhibition % (GI%)
In short: as §1

[19] = tested on: MDA-MB-468; settings: Homo sapiens, read-out: growth inhibition % (GI%)
In short: as §1

[20] = tested on: NCI-H460; settings: Homo sapiens, read-out: growth inhibition % (GI%)
In short: as §1

[21] = tested on: NCI-H522; settings: Homo sapiens, read-out: growth inhibition % (GI%)
In short: as §1

[22] = tested on: OVCAR-8; settings: Homo sapiens, read-out: growth inhibition % (GI%)
In short: as §1

[23] = tested on: SF-295; settings: Homo sapiens, read-out: growth inhibition % (GI%)
In short: as §1

[24] = tested on: RXF 393; settings: Homo sapiens, read-out: growth inhibition % (GI%)
In short: as §1

[25] = tested on: CAKI-1; settings: Homo sapiens, read-out: growth inhibition % (GI%)
In short: as §1

[26] = tested on: A498; settings: Homo sapiens, read-out: growth inhibition % (GI%)
In short: as §1

[27] = tested on: EKVX; settings: Homo sapiens, read-out: growth inhibition % (GI%)
In short: as §1

[28] = tested on: OVCAR-4; settings: Homo sapiens, read-out: growth inhibition % (GI%)
In short: as §1

[29] = tested on: UO-31; settings: Homo sapiens, read-out: growth inhibition % (GI%)
In short: as §1

[30] = tested on: MDA-MB-435; settings: Homo sapiens, read-out: growth inhibition % (GI%)
In short: as §1

[31] = tested on: A549/ATCC; settings: Homo sapiens, read-out: growth inhibition % (GI%)
In short: as §1

[32] = tested on: T-47D; settings: Homo sapiens, T47D, read-out: growth inhibition % (GI%)
In short: as §1

[33] = tested on: NCI-H322M; settings: Homo sapiens, read-out: growth inhibition % (GI%)
In short: as §1

[34] = tested on: SN 12 C; settings: Homo sapiens, SN12C, read-out: growth inhibition % (GI%)
In short: as §1

Compound | inhibition at 10 µM [1] | inhibition at 10 µM [2] | inhibition at 10 µM [3] | inhibition at 10 µM [4] | inhibition at 10 µM [5] | inhibition at 10 µM [6] | inhibition at 10 µM [7] | inhibition at 10 µM [8] | inhibition at 10 µM [9] | inhibition at 10 µM [10] | inhibition at 10 µM [11] | inhibition at 10 µM [12] | inhibition at 10 µM [13] | inhibition at 10 µM [14] | inhibition at 10 µM [15] | inhibition at 10 µM [16] | inhibition at 10 µM [17] | inhibition at 10 µM [18] | inhibition at 10 µM [19] | inhibition at 10 µM [20] | also measured
Cc1ccc(C(=O)c2ccc(CC(=O)NN=Cc3ccccc3O)n2C)cc1 [Compound 5a, N′-(2-Hydroxybenzylidene)-2–(1-methyl-5–(4-methylbenzoyl)-1H-pyrrol-2-yl)aceto hydrazide] | 23.8% | 18.5% | 17.1% | 13% | 13.2% | 40.4% | 45.9% | 42% | 24% | 19.1% | < 10% | 10.4% | 20.7% | 17.4% | 12.6% | 56.5% | < 10% | 18.6% | 18.9% | 23.4% | inhibition at 10 µM [21]: 24.9%; inhibition at 10 µM [22]: 21%; inhibition at 10 µM [23]: < 10%; inhibition at 10 µM [24]: 10.4%; inhibition at 10 µM [25]: 35.5%; inhibition at 10 µM [26]: 18%; inhibition at 10 µM [27]: 17.3%; inhibition at 10 µM [28]: 39.8%; inhibition at 10 µM [29]: 59.3%; inhibition at 10 µM [30]: 16.8%; inhibition at 10 µM [31]: 13.9%; inhibition at 10 µM [32]: 24.4%; inhibition at 10 µM [33]: 21.1%; inhibition at 10 µM [34]: 10.2%
Cc1ccc(C(=O)c2ccc(CC(=O)NN3C(=O)CCC3=O)n2C)cc1 [Compound 7a, N-(2,5-Dioxopyrrolidin-1-yl)-2–(1-methyl-5–(4-methylbenzoyl)-1H-pyrrol-2-yl) acetamide] | < 10% | 14.4% | < 10% | < 10% | 10% | 40.9% | < 10% | 12.8% | 15.5% | 22.3% | 10.6% | < 10% | 20% | 13.7% | < 10% | < 10% | 22.6% | 20.2% | < 10% | < 10% | inhibition at 10 µM [21]: 30.8%; inhibition at 10 µM [22]: 11%; inhibition at 10 µM [23]: < 10%; inhibition at 10 µM [24]: < 10%; inhibition at 10 µM [25]: 28.3%; inhibition at 10 µM [26]: 14.5%; inhibition at 10 µM [27]: 23.9%; inhibition at 10 µM [28]: 31.9%; inhibition at 10 µM [29]: 41.2%; inhibition at 10 µM [30]: < 10%; inhibition at 10 µM [31]: 11.1%; inhibition at 10 µM [32]: 42.8%; inhibition at 10 µM [33]: < 10%; inhibition at 10 µM [34]: 19.1%
